Assay results: patent US7521232B2, “Emissive species for clinical imaging” (ICx Nomadics, Inc., priority 2006, dated 2009)

Experiment: Solubility of isolated product in solvents
Format: physicochemical

Solubility in hexanes (hexanes) | Solubility in water (water) | Solubility in DMF (DMF) | Solubility in acetone (acetone) | Structure (SMILES)
Not very soluble | Not very soluble | – | – | OCCOCCOc1cc(I)c(OCCOCCO)cc1I
– | – | soluble | soluble | Cc1ccc(S(=O)(=O)OCCOCCOc2cc(I)c(OCCOCCOS(=O)(=O)c3ccc(C)cc3)cc2I)cc1
